In patent US5623080A, “Fluorone and pyronin Y derivatives” (Spectra Group Limited, Inc., priority 1995, dated 1997):

Experiment: pencil hardness
Procedure: To a resin formulation consisting of 15 parts urethane diacrylate, 15 parts DPHPA, 20 parts TPGDA and 40 parts TMPTA was added DIDMA, initiator and (4-octyloxyphenyl)phenyliodonium hexafluoroantimonate (OPPI). The samples were coated to a thickness of 15 microns and exposed to a 75 W tungsten halogen dental lamp (focused through an optical fiber) at a distance of 0.75 inch at which the Light intensity was about 0.40 W/cm^2. The molar ratios are indicative of the amounts of fluorone to onium salt to amine coinitiator. The double bond conversion was determined by FTIR spectroscopy. The pencil hardness of a given test sample is measured by holding a pencil at a 45° angle to the sample and drawing across it towards the person testing it. Using the pencils in an order from softest to hardest, the first pencil that scratches the surface is assigned as the pencil hardness of the sample. The pencil hardness scale is as follows from softest to hardest: 4B, 3B, 2B, B, HB, H, 2H, 3H, 4H, 6H. For instance, if a 2H pencil is the first pencil to scratch the surface then the pencil hardness is 2H.
At the extreme ends of the scale, it is impossible to determine the actual pencil hardness. […] Likewise, if the 4B pencil scratches the sample, the only assignment that can be made is <4B, unless it is a lot softer than 4B in which case a <<4B can be assigned. A pencil hardness of 4H is generally considered satisfactory. Pencil hardness data was greater than 6H after 30 seocnd exposure for all samples except for the control samples without amine (1:2:0). The controls were all less than 4B an 0.05 wt %, 0.10 wt %, and 0.15 wt %.
Photosensitive compositions were prepared from the resin formulation of Example 35 containing 1% NPG and 0.05% DIBF or 0.05% DIEF. The samples were exposed under the conditions shown in the following table and pencil hardness was measured.
Diphenyliodonium hexafluoroantimonate was added to DIBF samples.
Samples were also prepared using 1% DIDMA in addition to the fluorone for a 20:1 weight ratio.
Samples were also prepared from the same resin formulation containing 0.1% DIBF in addition to the coinitiator listed in the following Table 9 with the exposure condition and pencil hardness results shown.
Using the resin formulation of Example 36, photosensitive compositions were prepared using TIHF, DIDMA and OPPI at a concentration of 0.21% and in the molar ratios shown in Table 10 which follows. Exposure was conducted with the dental lamp at a distance of 1 inch from the sample to provide an intensity of about 0.26 W/cm^2. Molar ratios are fluorone:onium salt:amine.

Work on `CCCCOc1ccc2cc3cc(I)c(=O)c(I)c-3oc2c1` [DIBF, 5,7-diiodo-3-butoxy-6-fluorone] yielded a Pencil hardness (0.05 wt. % w/ 0.05 wt. % DPISbF6, Dental Lamp, Air, 60 sec) of 2H, a Pencil hardness (0.05 wt. % w/ 0.05 wt. % DPISbF6, Dental Lamp, No Air, 10 sec) greater than 6H and a Pencil hardness (0.05 wt. % w/ 0.05 wt. % DPISbF6, Fusion (Q bulb), Air, 10 ft/min) greater than 6H. The Pencil hardness (0.05 wt. % w/ 0.05 wt. % DPISbF6, Fusion (Q bulb), Air, 20 ft/min) was greater than 6H, the Pencil hardness (0.05 wt. %, 1% DIDMA, Dental Lamp, No Air, 10 sec) was 5-6H and the Pencil hardness (0.05 wt. %, 1% DIDMA, Dental Lamp, No Air, 30 sec) was greater than 6H. The Pencil hardness (0.05 wt. %, 1% DIDMA, Dental Lamp, No Air, 60 sec) was greater than 6H, the Pencil hardness (0.05 wt. %, 1% DIDMA, Fusion (Q bulb), Air, 10 ft/min) was greater than 6H and the Pencil hardness (0.05 wt. %, 1% DIDMA, Fusion (Q bulb), Air, 20 ft/min) was 3H. The Pencil hardness (0.05 wt. %, 1% NPG, Dental Lamp, No Air, 10 sec) was 4H, the Pencil hardness (0.05 wt. %, 1% NPG, Dental Lamp, No Air, 30 sec) was greater than 6H and the Pencil hardness (0.05 wt. %, 1% NPG, Dental Lamp, No Air, 60 sec) was greater than 6H. For the same compound, the Pencil hardness (0.05 wt. %, 1% NPG, Fusion (Q bulb), Air, 10 ft/min) was greater than 6H, the Pencil hardness (0.05 wt. %, 1% NPG, Fusion (Q bulb), Air, 20 ft/min) was 4H and the Pencil hardness (0.05 wt. %, 1% NPG, Overhead Proj., No Air, 60 sec) was 5-6H. For the same compound, the Pencil hardness (0.1% DIBF, 1.5% DIDMA, Dental Lamp, No Air, 10 sec) was greater than 6H, the Pencil hardness (0.1% DIBF, 1.5% DIDMA, Dental Lamp, No Air, 30 sec) was greater than 6H and the Pencil hardness (0.1% DIBF, 1.5% DIDMA, Dental Lamp, No Air, 60 sec) was greater than 6 h. The Pencil hardness (0.1% DIBF, 1.5% DIDMA, Fusion (Q bulb), Air, 10 ft/min) was greater than 6H, the Pencil hardness (0.1% DIBF, 1.5% DIDMA, Fusion (Q bulb), Air, 20 ft/min) was 5-6H and the Pencil hardness (0.1% DIBF, 1.5% NPG, Dental Lamp, No Air, 10 sec) was 5-6H. The Pencil hardness (0.1% DIBF, 1.5% NPG, Dental Lamp, No Air, 30 sec) was greater than 6H, the Pencil hardness (0.1% DIBF, 1.5% NPG, Dental Lamp, No Air, 60 sec) was greater than 6 h and the Pencil hardness (0.1% DIBF, 1.5% NPG, Fusion (Q bulb), Air, 10 ft/min) was greater than 6H. The Pencil hardness (0.1% DIBF, 1.5% NPG, Fusion (Q bulb), Air, 20 ft/min) was 5-6H, the Pencil hardness (0.1% DIBF, 2% NPG, Dental Lamp, No Air, 10 sec) was 5-6H and the Pencil hardness (0.1% DIBF, 2% NPG, Dental Lamp, No Air, 30 sec) was greater than 6H. For the same compound, the Pencil hardness (0.1% DIBF, 2% NPG, Dental Lamp, No Air, 60 sec) was greater than 6H, the Pencil hardness (0.1% DIBF, 2% NPG, Fusion (Q bulb), Air, 10 ft/min) was greater than 6H and the Pencil hardness (0.1% DIBF, 2% NPG, Fusion (Q bulb), Air, 20 ft/min) was 5-6H. For the same compound, the “Pencil hardness” value (Table 11, 0.05%, (1:0:60), DIDMA, 10 sec.) was 4H, the “Pencil hardness” value (Table 11, 0.05%, (1:0:60), DIDMA, 60 sec.) was greater than 6H and the “Pencil hardness” value (Table 11, 0.05%, (1:1:60), DIDMA, 10 sec.) was greater than 6H. The “Pencil hardness” value (Table 11, 0.05%, (1:2:3), DIDMA, 60 sec.) was greater than 6H, the “Pencil hardness” value (Table 11, 0.05%, (1:2:3), NPG, 60 sec.) was greater than 6H and the “Pencil hardness” value (Table 11, 0.10%, (1:2:3), DIDMA, 60 sec.) was greater than 6H. The “Pencil hardness” value (Table 11, 0.15%, (1:2:3), DIDMA, 60 sec.) was greater than 6H.
